Laboratory results as given in patent publication US11414424B2, “Cardiac sarcomere inhibitors” (Cytokinetics, Inc., priority 2018, dated 2022).

system: bovine cardiac myofibrils; assay: Myofibril assay: PK/LDH-coupled steady-state ATPase activity of skinned bovine cardiac myofibrils; format: biochemical; details: Ca2+ activating to 75% of maximal rate
Procedure, shortened: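 Steady-state ATPase of detergent-skinned bovine left-ventricular myofibrils (1 mg/mL), PK/LDH-coupled NADH read at 340 nm, in PIPES/MgCl2 buffer pH 6.8 with 50 μM ATP, 0.6 mM EGTA and CaCl2 set for 50% or 75% activation. Inhibition of activity measured.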

`Cc1ccc(CN2C(=O)CN(c3ncc(Cl)cc3F)C(=O)[C@H]2C23CC(C(N)=O)(C2)C3)cc1` [Compound 824, (R)-3-(4-(5-chloro-3-fluoropyridin-2-yl)-1-(4-methylbenzyl)-3,6-dioxopiperazin-2-yl)-bicyclo[1.1.1]pentane-1-carboxamide] was tested. Which “CDMF75 IC15” value did it give?
Its value is over 39000 nM.

How did the “CDMF75 IC15” value turn out when `CC(=O)N1CC2(C1)CC1(C2)C(=O)N(c2ncc(Cl)cc2F)CC(=O)N1Cc1ccc(C(F)(F)F)cc1` [Compound 825, 2-acetyl-10-(5-chloro-3-fluoropyridin-2-yl)-7-(4-(trifluoromethyl)benzyl)-2,7,10-triazadispiro-[3.1.56.14]dodecane-8,11-dione] was run?
Its value is 700 nM.

How did the “CDMF75 IC15” value turn out when `CC(=O)N1CC2(C1)CC1(C2)C(=O)N(c2ncc(Cl)cc2F)CC(=O)N1Cc1ccc(C(F)F)cc1` [Compound 826, 2-acetyl-10-(5-chloro-3-fluoropyridin-2-yl)-7-(4-(difluoromethyl)benzyl)-2,7,10-triazadispiro-[3.1.56.14]dodecane-8,11-dione] was run?
The value was 1260 nM.

How did the “CDMF75 IC15” value turn out when `CC(=O)N1CC2(C1)CC1(C2)C(=O)N(c2ncc(Cl)cc2F)CC(=O)N1Cc1ccc(F)cc1` [Compound 827, 2-acetyl-10-(5-chloro-3-fluoropyridin-2-yl)-7-(4-fluorobenzyl)-2,7,10-triazadispiro[3.1.56.14]-dodecane-8,11-dione] was run?
Its value is 2680 nM.

Which “CDMF75 IC15” value does the source give for `O=CN1CC2(C1)CC1(C2)C(=O)N(c2ncc(Cl)cc2F)CC(=O)N1Cc1ccc(F)cc1` [Compound 828, 10-(5-chloro-3-fluoro-pyridin-2-yl)-7-(4-fluoro-benzyl)-8,11-dioxo-2,7,10-triazadispiro[3.1.56.14]-dodecane-2-carbaldehyde] here?
The value was 1370 nM.

`Cc1ccc(CN2C(=O)CN(c3ncc(Cl)cc3F)C(=O)C23CC2(CN(C=O)C2)C3)cc1` [Compound 830, 10-(5-chloro-3-fluoro-pyridin-2-yl)-7-(4-methyl-benzyl)-8,11-dioxo-2,7,10-triazadispiro[3.1.56.14]-dodecane-2-carbaldehyde] was tested. Which “CDMF75 IC15” value did it give?
Its value is 1750 nM.

For `CC(=O)N1CC2(C1)CC1(C2)C(=O)N(c2ncc(Cl)cc2F)CC(=O)N1Cc1ccc(Cl)cc1` [Compound 831, 2-acetyl-10-(5-chloro-3-fluoropyridin-2-yl)-7-(4-chlorobenzyl)-2,7,10-triazadispiro[3.1.56.14]-dodecane-8,11-dione], which “CDMF75 IC15” value is on record?
Its value is 530 nM.

With `NC(=O)C12CC(C3C(=O)N(c4ncc(Cl)cc4F)CC(=O)N3Cc3ccc(Cl)cc3)(C1)C2` (stereo not drawn) [Compound 835, 3-(4-(5-chloro-3-fluoropyridin-2-yl)-1-(4-chlorobenzyl)-3,6-dioxopiperazin-2-yl)bicyclo[1.1.1]pentane-1-carboxamide] as the compound, how does the “CDMF75 IC15” value read?
The value was 1640 nM.

With `NC(=O)C12CC([C@H]3C(=O)N(c4ncc(Cl)cc4F)CC(=O)N3Cc3ccc(Cl)cc3)(C1)C2` [Compound 836, (S)-3-(4-(5-chloro-3-fluoro-pyridin-2-yl)-1-(4-chloro-benzyl)-3,6-dioxo-piperazin-2-yl)bicyclo-[1.1.1]pentane-1-carboxamide] as the compound, how does the “CDMF75 IC15” value read?
Its value is 1420 nM.

Which “CDMF75 IC15” value does the source give for `NC(=O)C12CC([C@@H]3C(=O)N(c4ncc(Cl)cc4F)CC(=O)N3Cc3ccc(Cl)cc3)(C1)C2` [Compound 837, (R)-3-(4-(5-chloro-3-fluoro-pyridin-2-yl)-1-(4-chloro-benzyl)-3,6-dioxo-piperazin-2-yl)bicyclo-[1.1.1]pentane-1-carboxamide] here?
The value was over 39000 nM.

`O=C1C(C23CC(O)(C2)C3)N(Cc2ccc(C(F)(F)F)cc2)C(=O)CN1c1ncc(Cl)cc1F` (stereo not drawn) [Compound 838, 1-(5-chloro-3-fluoropyridin-2-yl)-3-(3-hydroxybicyclo[1.1.1]pentan-1-yl)-4-(4-(trifluoromethyl)benzyl)piperazine-2,5-dione] was tested. Which “CDMF75 IC15” value did it give?
Its value is 3800 nM.

For `O=C1C(C23CC(O)(C2)C3)N(Cc2ccc(Cl)cc2)C(=O)CN1c1ncc(Cl)cc1F` (stereo not drawn) [Compound 841, 1-(5-chloro-3-fluoropyridin-2-yl)-4-(4-chlorobenzyl)-3-(3-hydroxybicyclo[1.1.1]-pentan-1-yl)piperazine-2,5-dione], which “CDMF75 IC15” value is on record?
The value was 2700 nM.

How did the “CDMF75 IC15” value turn out when `O=C1C(C23CC(O)(C2)C3)N(Cc2ccc(F)cc2)C(=O)CN1c1ncc(Cl)cc1F` (stereo not drawn) [Compound 844, 1-(5-chloro-3-fluoropyridin-2-yl)-4-(4-fluorobenzyl)-3-(3-hydroxybicyclo[1.1.1]-pentan-1-yl)piperazine-2,5-dione] was run?
Its value is 8600 nM.

With `O=C1C(C23CC(O)(C2)C3)N(Cc2ccc(C(F)F)cc2)C(=O)CN1c1ncc(Cl)cc1F` (stereo not drawn) [Compound 849, 1-(5-chloro-3-fluoropyridin-2-yl)-4-(4-(difluoromethyl)-benzyl)-3-(3-hydroxy-bicyclo[1.1.1]pentan-1-yl)piperazine-2,5-dione] as the compound, how does the “CDMF75 IC15” value read?
Its value is 5700 nM.

How did the “CDMF75 IC15” value turn out when `Cc1ccc(CN2C(=O)CN(c3ncc(Cl)cc3F)C(=O)C2C23CC(O)(C2)C3)cc1` (stereo not drawn) [Compound 852, 1-(5-chloro-3-fluoropyridin-2-yl)-3-(3-hydroxybicyclo-[1.1.1]pentan-1-yl)-4-(4-methylbenzyl)piperazine-2,5-dione] was run?
The value was 6500 nM.

Which “CDMF75 IC15” value does the source give for `Cc1cc(Cl)cnc1N1CC(=O)N(Cc2ccc(Cl)cc2)C2(CN(c3ccccn3)C2)C1=O` [Compound 882, 8-(5-chloro-3-methyl-pyridin-2-yl)-5-(4-chloro-benzyl)-2-(pyridin-2-yl)-2,5,8-triazaspiro[3.5]-nonane-6,9-dione] here?
Its value is 300 nM.

How did the “CDMF75 IC15” value turn out when `Cc1cc(Cl)cnc1N1CC(=O)N(Cc2ccc(F)cc2)C2(CN(c3ccccn3)C2)C1=O` [Compound 883, 8-(5-chloro-3-methyl-pyridin-2-yl)-5-(4-fluoro-benzyl)-2-(pyridin-2-yl)-2,5,8-triazaspiro[3.5]-nonane-6,9-dione] was run?
Its value is 400 nM.

Which “CDMF75 IC15” value does the source give for `Cc1cc(Cl)cnc1N1CC(=O)N(Cc2ccc(Cl)cc2)C2(CN(c3ccc(F)cn3)C2)C1=O` [Compound 884, 8-(5-chloro-3-methyl-pyridin-2-yl)-5-(4-chloro-benzyl)-2-(5-fluoropyridin-2-yl)-2,5,8-triazaspiro[3.5]-nonane-6,9-dione] here?
Its value is 500 nM.

With `Cc1cc(Cl)cnc1N1CC(=O)N(Cc2ccc(F)cc2)C2(CN(c3ccc(F)cn3)C2)C1=O` [Compound 885, 8-(5-chloro-3-methyl-pyridin-2-yl)-5-(4-fluoro-benzyl)-2-(5-fluoropyridin-2-yl)-2,5,8-triazaspiro-[3.5]nonane-6,9-dione] as the compound, how does the “CDMF75 IC15” value read?
Its value is 500 nM.

With `Cc1cc(Cl)cnc1N1CC(=O)N(Cc2ccc(Cl)cc2)C2(CN(c3ccc(C#N)cn3)C2)C1=O` [Compound 886, 6-(8-(5-chloro-3-methyl-pyridin-2-yl)-5-(4-chloro-benzyl)-6,9-dioxo-2,5,8-triazaspiro[3.5]nonan-2-yl)nicotinonitrile] as the compound, how does the “CDMF75 IC15” value read?
The value was 700 nM.

How did the “CDMF75 IC15” value turn out when `Cc1cc(Cl)cnc1N1CC(=O)N(Cc2ccc(F)cc2)C2(CN(c3ccc(C#N)cn3)C2)C1=O` [Compound 887, 6-(8-(5-chloro-3-methyl-pyridin-2-yl)-5-(4-fluoro-benzyl)-6,9-dioxo-2,5,8-triazaspiro[3.5]nonan-2-yl)nicotinonitrile] was run?
The value was 900 nM.
